Counter-ions that a name gives are not always drawn.
Tests used:
[1] = molecular target: T1, TNKS1 (Homo sapiens, UniProt O95271); assay: Modified TNKS1 Assay 3 (BPS kit #80573, biotin-NAD+, 96 well); assay type: biochemical; conditions: human TNKS1, BPS kit #80573, 96 well
T1 sequence (O95271 1-1327): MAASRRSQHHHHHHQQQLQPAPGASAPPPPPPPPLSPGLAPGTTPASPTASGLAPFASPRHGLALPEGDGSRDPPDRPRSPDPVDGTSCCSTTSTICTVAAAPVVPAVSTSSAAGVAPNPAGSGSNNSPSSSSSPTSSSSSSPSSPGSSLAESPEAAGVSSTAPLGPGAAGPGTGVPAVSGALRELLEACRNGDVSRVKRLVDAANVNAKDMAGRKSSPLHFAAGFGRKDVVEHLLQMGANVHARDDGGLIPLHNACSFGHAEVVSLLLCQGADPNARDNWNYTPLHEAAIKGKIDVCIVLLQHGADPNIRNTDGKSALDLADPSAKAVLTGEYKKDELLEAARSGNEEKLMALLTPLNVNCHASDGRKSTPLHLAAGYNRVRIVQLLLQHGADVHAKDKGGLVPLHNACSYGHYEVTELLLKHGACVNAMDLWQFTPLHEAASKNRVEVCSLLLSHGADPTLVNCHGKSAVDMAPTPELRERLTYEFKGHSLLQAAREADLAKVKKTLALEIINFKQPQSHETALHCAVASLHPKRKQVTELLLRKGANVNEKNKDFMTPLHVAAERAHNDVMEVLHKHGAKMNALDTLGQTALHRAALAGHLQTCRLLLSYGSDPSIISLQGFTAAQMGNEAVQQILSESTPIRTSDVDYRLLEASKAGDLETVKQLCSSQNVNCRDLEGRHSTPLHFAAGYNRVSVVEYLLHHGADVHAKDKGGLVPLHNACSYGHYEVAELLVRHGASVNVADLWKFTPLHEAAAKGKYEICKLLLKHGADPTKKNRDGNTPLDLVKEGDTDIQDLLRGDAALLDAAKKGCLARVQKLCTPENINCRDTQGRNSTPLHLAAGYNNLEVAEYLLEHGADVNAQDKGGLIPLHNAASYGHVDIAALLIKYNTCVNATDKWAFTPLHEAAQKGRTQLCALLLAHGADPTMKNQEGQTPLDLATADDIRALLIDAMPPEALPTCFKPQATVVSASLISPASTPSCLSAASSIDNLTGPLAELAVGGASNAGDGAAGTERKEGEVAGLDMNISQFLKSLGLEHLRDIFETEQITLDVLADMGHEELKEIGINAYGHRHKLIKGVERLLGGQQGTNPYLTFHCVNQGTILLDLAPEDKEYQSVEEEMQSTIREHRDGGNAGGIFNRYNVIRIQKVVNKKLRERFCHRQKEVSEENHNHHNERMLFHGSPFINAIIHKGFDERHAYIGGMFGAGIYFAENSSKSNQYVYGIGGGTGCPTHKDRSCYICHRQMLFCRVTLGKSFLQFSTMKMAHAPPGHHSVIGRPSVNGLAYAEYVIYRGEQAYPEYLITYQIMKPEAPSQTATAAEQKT
Experimental: The potency of the compounds against human TNKS1 according to the invention was assessed using a commercially available biotin/streptavidin binding assay kits from BPS Bioscience, San Diego, USA (Catalog #80573 for TNKS1). The incorporation of a biotin-labeled NAD+ during the […] catalyzed ribosylation of a suitable protein substrate was detected using with a streptavidin-HRP coupled chemi-luminescent readout. The intensity of the readout signal is proportional to the incorporated NAD^+. Inhibition of TNKS1 leads to a decreased incorporation of NAD^+ and consequently to a lower readout signal intensity in the corresponding TNKS1 assays. The concentration of a test compound that inhibits the enzyme activity by 50% (corresponds to half of the normed readout signal intensity) is reported as IC50. The assay was conducted in a 96 well MTP format according to the manufacturer's protocol and using a BMG Pherastar MTP reader [BMG-Labtech, Offenburg, Germany].

[2] = system: wildtype Wnt signaling cascade; assay: HEK293 TOP Assay (Super TopFlash luciferase reporter, Wnt-3a stimulated); assay type: cell-based; conditions: Homo sapiens, HEK293 TOP reporter cell line, Wnt-3a at EC50, 16 hours incubation, compound dilution series 50 μM to 15 nM
Outline: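 Compounds (50 μM down to 15 nM, 3.16-fold steps, in CAFTY buffer pH 7.4, 2 mM Ca2+, 0.01% BSA) tested in parallel on TOP and FOP HEK293 reporter lines to define selective wildtype Wnt inhibition. Pathway driven by recombinant human Wnt-3a applied at 2500–5 ng/ml in two-fold dilutions.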

[3] = system: HEK293 FOP control reporter cell line; assay: HEK293 FOP Assay (FOP control vector luciferase reporter); assay type: cell-based; conditions: Homo sapiens, HEK293 FOP control reporter cell line, 16 hours incubation, compound dilution series 50 μM to 15 nM
Outline: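 Compound series 50 μM to 15 nM, 3.16-fold steps, were diluted in CAFTY buffer (pH 7.4, 2 mM Ca2+, 0.01% BSA) and tested alongside the TOP reporter line. Human Wnt-3a was added at 2500–5 ng/ml in two-fold steps. The control HEK293 line stably holds an FOP vector whose TCF elements are randomized and non-functional.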

| SMILES | IC50 [1] [nM] | IC50 ([2]; HEK293, 16 h) [nM] | IC50 [3] [nM] | IC50 [2] [nM] | IC50 ([3]; HEK293, 16 h) [nM] |
| --- | --- | --- | --- | --- | --- |
| CN1CC2(C1)CN(C(=O)c1nc[nH]c1C(=O)Nc1ccc(NC(=O)c3cc(F)c(F)cc3Cl)cc1)C2 [Example 50, N N-{4-[(2-chloro-4,5-difluorobenzoyl)amino]phenyl}-4-[(6-methyl-2,6-diazaspiro[3.3]hept-2-yl)carbonyl]-1H-imidazole-5-carboxamide] | 130 | 120 | 13000 | – | – |
| CN(C)CCNC(=O)c1nc[nH]c1C(=O)Nc1ccc(NC(=O)c2ccc(F)cc2Cl)nc1 [Example 109, N^5-{6-[(2-chloro-4-fluorobenzoyl)amino]pyridin-3-yl}-N^4-[2-(dimethylamino)ethyl]-1H-imidazole-4,5-dicarboxamide] | 1 | 140 | 43000 | – | – |
| O=C(Nc1ccc(NC(=O)c2[nH]cnc2C(=O)NCCN2CCCCC2)cn1)c1ccccc1Cl [Example 114, N^5-{6-[(2-chlorobenzoyl)amino]pyridin-3-yl}-N^4-[2-(piperidin-1-yl)ethyl]-1H-imidazole-4,5-dicarboxamide] | < 0.5 | 70 | – | – | – |
| O=C(Nc1ccc(NC(=O)c2[nH]cnc2C(=O)NCCN2CCCCC2)cc1)c1ccc(F)cc1Cl [Example 127, N^5-{4-[(2-chloro-4-fluorobenzoyl)amino]phenyl}-N^4-[2-(piperidin-1-yl)ethyl]-1H-imidazole-4,5-dicarboxamide hydrochloride] | 2 | – | – | 10 | 50000 |
| CC(C)(C)NC(=O)c1[nH]cnc1C(=O)Nc1ccc(NC(=O)c2ccc(F)cc2Cl)cc1 [Example 133, N^5-tert-butyl-N^4-{4-[(2-chloro-4-fluorobenzoyl)amino]phenyl}-1H-imidazole-4,5-dicarboxamide] | 200 | 430 | 8700 | – | – |
| O=C(Nc1ccc(NC(=O)c2nc[nH]c2C(=O)NCCN2CCC(O)CC2)cc1)c1ccc(F)cc1Cl [Example 212, N^4-{4-[(2-chloro-4-fluorobenzoyl)amino]phenyl}-N^5-[2-(4-hydroxypiperidin-1-yl)ethyl]-1H-imidazole-4,5-dicarboxamide] | 5 | 70 | – | – | – |
| COC1CCN(CCNC(=O)c2[nH]cnc2C(=O)Nc2ccc(NC(=O)c3ccc(F)cc3Cl)cc2)C1 (stereo not shown) [Example 265, N^4-{4-[(2-chloro-4-fluorobenzoyl)amino]phenyl}-N^5-[2-(3-methoxypyrrolidin-1-yl)ethyl]-1H-imidazole-4,5-dicarboxamide] | 7 | 120 | – | – | – |
| O=C(Nc1ccc(NC(=O)c2nc[nH]c2C(=O)NCCN2CCC[C@@H](O)C2)cc1)c1ccc(F)cc1Cl [Example 272, N^4-{4-[(2-chloro-4-fluorobenzoyl)amino]phenyl}-N^5-{2-[(3R)-3-hydroxypiperidin-1-yl]ethyl}-1H-imidazole-4,5-dicarboxamide] | 70 | 120 | – | – | – |
| O=C(Nc1ccc(NC(=O)c2nc[nH]c2C(=O)NCCCN2CCCC(O)C2)cc1)c1ccc(F)cc1Cl (stereo not shown) [Example 273, N^4-{4-[(2-chloro-4-fluorobenzoyl)amino]phenyl}-N^5-[3-(3-hydroxypiperidin-1-yl)propyl]-1H-imidazole-4,5-dicarboxamide] | 30 | 1550 | 21000 | – | – |
| O=C(Nc1ccc(NC(=O)c2nc[nH]c2C(=O)NCCN2CCC[C@H](F)C2)cc1)c1ccc(F)cc1Cl [Example 276, N^4-{4-[(2-chloro-4-fluorobenzoyl)amino]phenyl}-N^5-{2-[(3S)-3-fluoropiperidin-1-yl]ethyl}-1H-imidazole-4,5-dicarboxamide] | 50 | 110 | 31000 | – | – |
| CC(C)(N)CCNC(=O)c1[nH]cnc1C(=O)Nc1ccc(NC(=O)c2ccccc2Cl)cc1 [Example 283, N^5-(3-amino-3-methylbutyl)-N^4-{4-[(2-chlorobenzoyl)amino]phenyl}-1H-imidazole-4,5-dicarboxamide hydrochloride salt] | 110 | – | – | 840 | 50000 |
| CC(C)[C@@H](CO)NC(=O)c1nc[nH]c1C(=O)Nc1ccc(NC(=O)c2ccc(F)cc2Cl)cc1 [Example 379, N^5-{4-[(2-chloro-4-fluorobenzoyl)amino]phenyl}-N^4-[(2S)-1-hydroxy-3-methylbutan-2-yl]-1H-imidazole-4,5-dicarboxamide] | 190 | 3200 | – | – | – |
| CCN(CC)CCNC(=O)c1nc[nH]c1C(=O)Nc1ccc(NC(=O)c2ccc(F)cc2Cl)cc1 [Example 382, N^5-{4-[(2-chloro-4-fluorobenzoyl)amino]phenyl}-N^4-[2-(diethylamino)ethyl]-1H-imidazole-4,5-dicarboxamide] | 20 | 120 | – | – | – |
| CN1CCCC1CCNC(=O)c1nc[nH]c1C(=O)Nc1ccc(NC(=O)c2ccc(F)cc2Cl)cc1 (stereo not shown) [Example 385, N^5-{4-[(2-chloro-4-fluorobenzoyl)amino]phenyl}-N^4-[2-(1-methylpyrrolidin-2-yl)ethyl]-1H-imidazole-4,5-dicarboxamide] | 50 | 310 | – | – | – |
| O=C(Nc1ccc(NC(=O)c2[nH]cnc2C(=O)NCCN2CCS(=O)(=O)CC2)cc1)c1ccc(F)cc1Cl [Example 402, N^5-{4-[(2-chloro-4-fluorobenzoyl)amino]phenyl}-N^4-[2-(1,1-dioxidothiomorpholin-4-yl)ethyl]-1H-imidazole-4,5-dicarboxamide] | 260 | 170 | – | – | – |
| CN1CCC(CNC(=O)c2nc[nH]c2C(=O)Nc2ccc(NC(=O)c3ccc(F)cc3Cl)cc2)CC1 [Example 408, N^5-{4-[(2-chloro-4-fluorobenzoyl)amino]phenyl}-N^4-[(1-methylpiperidin-4-yl)methyl]-1H-imidazole-4,5-dicarboxamide] | 80 | 300 | – | – | – |
| CCN1CCC(CNC(=O)c2nc[nH]c2C(=O)Nc2ccc(NC(=O)c3ccc(F)cc3Cl)cc2)C1 (stereo not shown) [Example 411, N^5-{4-[(2-chloro-4-fluorobenzoyl)amino]phenyl}-N^4-[(1-ethylpyrrolidin-3-yl)methyl]-1H-imidazole-4,5-dicarboxamide] | 70 | 290 | – | – | – |
| CN(C)C(C)(C)CNC(=O)c1nc[nH]c1C(=O)Nc1ccc(NC(=O)c2ccc(F)cc2Cl)cc1 [Example 412, N^5-{4-[(2-chloro-4-fluorobenzoyl)amino]phenyl}-N^4-[2-(dimethylamino)-2-methylpropyl]-1H-imidazole-4,5-dicarboxamide] | 30 | 140 | – | – | – |
